Results: US20240199542A1, “SUBSTITUTED PYRROLIDIN-2-ONES, SALTS THEREOF AND THEIR USE AS HERBICIDALLY ACTIVE SUBSTANCES” (Bayer Aktiengesellschaft, priority 2021, published 2024)

Legend:
Assay type in all cases: in vivo
[1] = system: Amaranthus retroflexus (AMARE); assay: Herbicidal post-emergence action; conditions: 1280 g/ha, assessed after ca. 3 weeks
Outline: (§1)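 Applied rates were 1280 or 320 g/ha, as aqueous WP or EC spray with 0.5% additive at 600 l water/ha onto single-leaf-stage plants grown 2–3 weeks in sandy loam. Effect was rated visually about 3 weeks later, 0% matching controls and 100% plants dead.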

[2] = system: Alopecurus myosuroides (ALOMY); assay: Herbicidal pre-emergence action; conditions: graded after ca. 3 weeks
Outline: (§2)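 Percent herbicidal effect, from 0% (as untreated) to 100% (plants dead), was graded visually about 3 weeks after treatment under optimal greenhouse conditions. Compounds, as WP or EC with 0.5% additive in 600 l water/ha at up to 1280 g/ha, were applied to covering soil over freshly sown seeds in sandy loam.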

[3] = system: Avena fatua (AVEFA); assay: Herbicidal pre-emergence action; conditions: graded after ca. 3 weeks
Outline: as §2

[4] = system: Cyperus esculentus (CYPES); assay: Herbicidal pre-emergence action; conditions: 1280 g/ha, graded after ca. 3 weeks
Outline: as §2

[5] = system: Digitaria sanguinalis (DIGSA); assay: Herbicidal pre-emergence action; conditions: 320 g/ha, graded after ca. 3 weeks
Outline: as §2

[6] = system: Echinochloa crus-galli (ECHCG); assay: Herbicidal pre-emergence action; conditions: 1280 g/ha, graded after ca. 3 weeks
Outline: as §2

[7] = system: Lolium multiflorum (LOLMU); assay: Herbicidal pre-emergence action; conditions: 1280 g/ha, graded after ca. 3 weeks
Outline: as §2

[8] = system: Lolium rigidum (LOLRI); assay: Herbicidal pre-emergence action; conditions: 320 g/ha, graded after ca. 3 weeks
Outline: as §2

[9] = system: Polygonum convolvulus (POLCO); assay: Herbicidal pre-emergence action; conditions: graded after ca. 3 weeks
Outline: as §2

[10] = system: Setaria viridis (SETVI); assay: Herbicidal pre-emergence action; conditions: graded after ca. 3 weeks
Outline: as §2

[11] = system: Veronica persica (VERPE); assay: Herbicidal pre-emergence action; conditions: 1280 g/ha, graded after ca. 3 weeks
Outline: as §2

[12] = system: Alopecurus myosuroides (ALOMY); assay: Herbicidal post-emergence action; conditions: 1280 g/ha, assessed after ca. 3 weeks
Outline: as §1

[13] = system: Avena fatua (AVEFA); assay: Herbicidal post-emergence action; conditions: 1280 g/ha, assessed after ca. 3 weeks
Outline: as §1

[14] = system: Digitaria sanguinalis (DIGSA); assay: Herbicidal post-emergence action; conditions: 320 g/ha, assessed after ca. 3 weeks
Outline: as §1

[15] = system: Echinochloa crus-galli (ECHCG); assay: Herbicidal post-emergence action; conditions: 1280 g/ha, assessed after ca. 3 weeks
Outline: as §1

[16] = system: Lolium multiflorum (LOLMU); assay: Herbicidal post-emergence action; conditions: 1280 g/ha, assessed after ca. 3 weeks
Outline: as §1

[17] = system: Lolium rigidum (LOLRI); assay: Herbicidal post-emergence action; conditions: 320 g/ha, assessed after ca. 3 weeks
Outline: as §1

[18] = system: Setaria viridis (SETVI); assay: Herbicidal post-emergence action; conditions: 1280 g/ha, assessed after ca. 3 weeks
Outline: as §1

[19] = system: Brassica napus (BRSNW); assay: Post-emergence effects on crop plants; conditions: crop plant Brassica napus (BRSNW)
Excerpt: (§3) Seeds of mono- and dicotyledonous weed plants and crop plants were sown, in plastic or organic planting pots, in sandy loam, covered with soil and grown in a greenhouse under controlled growth conditions. 2 to 3 weeks after sowing, the test plants were sprayed in the single-leaf stage. The compounds according to the invention, formulated in form of wettable powders (WP) or as emulsifiable concentrates (EC), were sprayed onto the green plant parts as aqueous suspension or emulsion, with the addition of 0.5% of an additive, at an application rate of 600 1 of water/ha (converted). The test plants were placed in the greenhouse for ca. 3 weeks under optimum growth conditions, and then the effect of the preparations was assessed visually in comparison with untreated controls (herbicidal effect in percent (%): 100% effect=plants have died off, 0% effect=as control plants).
(§4) Tables D1 to D3 below show the effects of selected compounds of the general formula (I) according to table 1 on various crop plants and an application rate corresponding to 320 g/ha or below obtained by the experimental procedure mentioned above in biology section B.

[20] = system: Viola tricolor (VIOTR); assay: Herbicidal pre-emergence action; conditions: 320 g/ha, graded after ca. 3 weeks
Outline: as §2

[21] = system: Polygonum convolvulus (POLCO); assay: Herbicidal post-emergence action; conditions: 1280 g/ha, assessed after ca. 3 weeks
Outline: as §1

[22] = system: Stellaria media (STEME); assay: Herbicidal post-emergence action; conditions: 1280 g/ha, assessed after ca. 3 weeks
Outline: as §1

[23] = system: Brassica napus (BRSNW); assay: Pre-emergence effects on crop plants; conditions: 320 g/ha, crop plant
Excerpt: (§5) Seeds of mono- and dicotyledonous weed plants and crop plants were sown, in plastic or organic planting pots, in sandy loam and covered with soil. The compounds according to the invention, formulated in the form of wettable powders (WP) or as emulsifiable concentrates (EC), were applied to the surface of the covering soil as aqueous suspension or emulsion, with the addition of 0.5% of an additive, at an application rate of 600 1 of water/ha (converted).
(§6) Following treatment, the pots were placed in a greenhouse and kept under optimum growth conditions for the test plants. The visual grading of the damage to the test plants was carried out after ca. 3 weeks in comparison to untreated controls (herbicidal effect in percent (%): 100% effect=plants have died off, 0% effect=as control plants).
(§7) Tables C1 to C3 below show the effects of selected compounds of the general formula (I) according to table 1 on various crop plants and an application rate corresponding to 320 g/ha or below obtained by the experimental procedure mentioned above in biology section A.

[24] = system: Glycine max (GLXMA); assay: Pre-emergence effects on crop plants; conditions: 320 g/ha, crop plant
Excerpt: as §5, §6, §7

[25] = system: Zea Mays (ZEAMX); assay: Pre-emergence effects on crop plants; conditions: 320 g/ha, crop plant
Excerpt: as §5, §6, §7

[26] = system: Glycine max (GLXMA); assay: Post-emergence effects on crop plants; conditions: 320 g/ha, crop plant
Excerpt: as §3, §4

[27] = system: Zea Mays (ZEAMX); assay: Post-emergence effects on crop plants; conditions: 320 g/ha, crop plant
Excerpt: as §3, §4

[28] = system: Cyperus esculentus (CYPES); assay: Herbicidal post-emergence action; conditions: 1280 g/ha, assessed after ca. 3 weeks
Outline: as §1

[29] = system: Amaranthus retroflexus (AMARE); assay: Herbicidal pre-emergence action; conditions: 1280 g/ha, graded after ca. 3 weeks
Outline: as §2

Structure (SMILES) | Pre-emergence activity against ALOMY ([2]; 1280 g/ha) [%] | Pre-emergence activity against AVEFA ([3]; 1280 g/ha) [%] | Pre-emergence activity against CYPES [4] [%] | Pre-emergence activity against DIGSA [5] [%] | Pre-emergence activity against ECHCG [6] [%] | Pre-emergence activity against LOLMU [7] [%] | Pre-emergence activity against LOLRI [8] [%] | Post-emergence activity against ALOMY [12] [%] | Post-emergence activity against AVEFA [13] [%] | Post-emergence activity against DIGSA [14] [%] | Post-emergence activity against ECHCG [15] [%] | Post-emergence activity against LOLMU [16] [%] | Post-emergence activity against LOLRI [17] [%] | Post-emergence activity against SETVI [18] [%] | Pre-emergence activity against POLCO ([9]; 1280 g/ha) [%] | Pre-emergence activity against SETVI ([10]; 1280 g/ha) [%] | Post-emergence activity against POLCO [21] [%] | further results
O=C(CC1CCC(=O)N1Cc1cccc(F)c1F)NC1CCCc2ccccc21 (mixture of isomers) [Example I-066] | – | – | – | – | – | – | – | – | – | – | – | – | – | – | – | – | – | Post-emergence activity against AMARE [1]: 100%
O=C(O)CC1CCC(=O)N1Cc1cccc(Cl)c1F (racemic) [Example I-001, 2-[1-[(3-chloro-2-fluorophenyl)methyl]-5-oxo-pyrrolidin-2-yl]acetic acid] | 90 | 100 | 80 | 100 | 80 | 90 | 90 | 90 | 90 | 90 | 90 | 100 | 80 | 80 | – | – | – | Pre-emergence activity against ALOMY ([2]; 320 g/ha): 80%; Pre-emergence activity against AVEFA ([3]; 320 g/ha): 100%; Pre-emergence activity against POLCO ([9]; 320 g/ha): 80%; Pre-emergence activity against SETVI ([10]; 320 g/ha): 100%; Pre-emergence activity against VERPE [11]: 90%; post-emergence activity against BRSNW ([19]; application rate 320 g/ha): 0%
COCCOC(=O)CC1CCC(=O)N1Cc1cccc(F)c1F (racemic) [Example I-015] | 90 | 100 | 80 | 100 | 90 | 80 | 80 | – | 90 | 80 | 100 | 80 | 80 | 90 | 80 | 90 | 80 | Pre-emergence activity against VIOTR [20]: 90%; Post-emergence activity against STEME [22]: 90%; pre-emergence activity against BRSNW (crop damage) [23]: 20%; pre-emergence activity against GLXMA (crop damage) [24]: 0%; pre-emergence activity against ZEAMX (crop damage) [25]: 0%; post-emergence activity against BRSNW ([19]; application rate 80 g/ha): 0%; post-emergence activity against GLXMA (crop damage) [26]: 0%; post-emergence activity against ZEAMX (crop damage) [27]: 0%
C=CCOC(=O)CC1CCC(=O)N1Cc1cccc(F)c1F (racemic) [Example I-021] | 90 | 100 | – | – | 80 | 90 | – | 80 | 80 | – | 90 | 90 | – | 90 | 80 | 80 | 80 | Post-emergence activity against CYPES [28]: 80%
COC(=O)C1(NC(=O)CC2CCC(=O)N2Cc2cccc(F)c2F)CC1 (racemic) [Example I-048] | 80 | 90 | – | – | – | 80 | – | – | – | – | – | – | – | – | – | – | – | Pre-emergence activity against AMARE [29]: 90%
